One experiment deals with SPIN1 TUDOR. The format is binding. To be noted: 1 h, 4°C; pH 7.5.
The next experiment concerns Set7/9. It is filed as biochemical. To be noted: pH 8.5.
A further experiment has as its system endogenous SPIN1. The format is binding. The settings on record: 1 h, 4°C.
The subject of another experiment is TAF3 PHD finger. The format is binding.
A further experiment deals with PHF23 PHD finger. It is filed as binding.
In a further experiment the test system is endogenous PHF2. It is filed as binding. To be noted: 1 h, 4°C.
For a further experiment, the system named is PHF2 PHD finger. The format is binding.
The next experiment concerns KDM7A PHD finger. The format is binding.
The subject of a further experiment is PHF2 PHD. It is filed as binding. The settings on record: 1 h, 4°C; pH 7.5.
In another experiment the test system is ING3 PHD finger. The format is binding.
The subject of a further experiment is ING3 PHD. It is filed as binding. The settings on record: 1 h, 4°C; pH 7.5.

Regarding SRRK(me3)QGNPQHLS-Biotin [BCL11B K4me3], the “pull-down of GST-SPIN1 TUDOR” value in the experiment with SPIN1 TUDOR is reported as “interacted”. Also, the “methylation by Set7/9” value with Set7/9 is reported as “could not methylate”. The “enrichment of endogenous SPIN1” value with endogenous SPIN1 was “enriched”. Further, the “interaction with TAF3 PHD finger” value with TAF3 PHD finger is given as “interacted”. The “interaction with PHF23 PHD finger” value in the experiment on PHF23 PHD finger is reported as “selectively interacted”. In addition, the “enrichment of endogenous PHF2” value in the experiment with endogenous PHF2 was “very weakly”. Further, the “interaction with PHF2 PHD finger” value in the experiment with PHF2 PHD finger is “interacted”. Also, the “interaction with KDM7A PHD finger” value in the experiment with KDM7A PHD finger is listed as “interacted”. Moreover, the “pull-down of GST-PHF2 PHD” value in the experiment on PHF2 PHD is “strongly interacted”.
Consider VRTK(me3)ADSVPGTY-Biotin [PCLAF K4me3], for which the “interaction with KDM7A PHD finger” value with KDM7A PHD finger is on record as “only recognized KDM7A”.
As to “PRRK(me3)QQAPRRSA-Biotin (PRRKQQAPRRSA) [TSHZ1 K4me3]”, the “pull-down of GST-SPIN1 TUDOR” value with SPIN1 TUDOR is listed as “interacted”. For the same substance, the “interaction with ING3 PHD finger” value in the experiment with ING3 PHD finger is given as “bound”. Moreover, the “pull-down of GST-ING3 PHD” value with ING3 PHD is recorded as “methylation-dependent interactions”. For the same substance, in the experiment on TAF3 PHD finger, the “interaction with TAF3 PHD finger” value was “bound”.

For the origin of these results see paper PMC8166343 (Biochemical Journal, 2021).
